One assay addresses T1, human 5HT6 receptor (Homo sapiens, UniProt P50406).
T1 construct: expressed in transfected cells
In words: Radioligand binding at 5-HT6 receptor. Conditions: read-out: h5HT6 Ki. How it is done:
(§1) Other 5-HT ReceDtors: Other serotonin receptor binding assays were performed according to published methods: rat 5HT2c receptor (Julius et al., 1988); and 5-HT6 (Monsma, et al., 1993). The binding assays using the 5-HT4 receptor were performed according to the procedures described in U.S. Pat. No. 5,766,879, the disclosure of which is hereby incorporated by reference in its entirety into this application.
(§2) Binding data were analyzed using nonlinear regression and statistical techniques available in the GraphPAD Prism package (San Diego, Calif.). Enzymatic assay data were derived from a standard curve of reference compound data.

The next assay has as its target T2, DA transporter (Rattus norvegicus, UniProt P23977).
T2 construct: native, tissue-derived transporters; from tissue
In words: Binding at native DA transporter. Conditions: read-out: rDA Uptk Ki. How it is done:
(§3) The methods to determine binding affinity at native transporters are described in the following publications: 5HT transporter and NE transporter (Owens et al., 1997), and DA transporter (Javitch et al, 1984).
as §2

The target of assay [1] is T3, human dopamine D2 receptor (Homo sapiens, UniProt P14416).
T3 construct: purchased BioSignal, Inc. (Montreal, Canada)
T3 sequence (P14416 whole entry): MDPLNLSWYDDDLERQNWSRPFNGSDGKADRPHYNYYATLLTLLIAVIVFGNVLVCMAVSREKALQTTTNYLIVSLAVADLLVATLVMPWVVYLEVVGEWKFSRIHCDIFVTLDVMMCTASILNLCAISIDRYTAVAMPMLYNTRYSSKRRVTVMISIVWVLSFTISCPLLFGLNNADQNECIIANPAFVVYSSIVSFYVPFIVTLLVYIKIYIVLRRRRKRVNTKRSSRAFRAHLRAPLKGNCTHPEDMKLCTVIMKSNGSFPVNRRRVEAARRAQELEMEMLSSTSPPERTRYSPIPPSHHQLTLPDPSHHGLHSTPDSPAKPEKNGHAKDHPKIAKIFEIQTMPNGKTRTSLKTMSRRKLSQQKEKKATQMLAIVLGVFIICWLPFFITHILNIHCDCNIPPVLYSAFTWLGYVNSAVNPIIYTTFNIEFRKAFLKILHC
In words: Binding at human dopamine D2 receptor. Conditions: read-out: hD2 Ki.
Source text: (§4) Other receptors: Cell membranes expressing human dopamine D1, D2, D4 and rat D3 receptors were purchased through BioSignal, Inc. (Montreal, Canada). Binding assays using the histamine H1 receptor; dopamine receptors; and α1A, α1B, and α2 adrenergic receptors may be carried out according to the procedures described in U.S. Pat. No. 5,780,485, the disclosure of which is hereby incorporated by reference in its entirety into this application. Binding assays using the dopamine D5 receptor may be carried out according to the procedures described in U.S. Pat. No. 5,882,855, the disclosure of which is hereby incorporated by reference in its entirety into this application. Binding assays for the human α1D adrenergic receptor may be carried out according to the procedures described in U.S. Pat. No. 6,156,518, the disclosure of which is hereby incorporated by reference in its entirety into this application.
as §2

In assay [2] the target is T4, human dopamine D1 receptor (Homo sapiens, UniProt P21728).
T4 construct: purchased BioSignal, Inc. (Montreal, Canada)
T4 sequence (P21728 whole entry): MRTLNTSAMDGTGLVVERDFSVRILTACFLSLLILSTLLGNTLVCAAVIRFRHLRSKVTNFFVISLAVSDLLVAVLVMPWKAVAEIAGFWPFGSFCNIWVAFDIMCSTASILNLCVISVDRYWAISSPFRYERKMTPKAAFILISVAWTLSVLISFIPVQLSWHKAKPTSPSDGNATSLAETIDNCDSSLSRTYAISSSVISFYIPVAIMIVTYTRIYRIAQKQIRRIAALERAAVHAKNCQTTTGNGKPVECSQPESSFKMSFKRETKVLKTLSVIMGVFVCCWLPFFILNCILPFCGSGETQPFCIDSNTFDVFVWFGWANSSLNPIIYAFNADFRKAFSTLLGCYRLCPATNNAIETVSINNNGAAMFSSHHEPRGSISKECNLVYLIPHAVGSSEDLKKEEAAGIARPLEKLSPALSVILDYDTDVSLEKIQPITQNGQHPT
Kind of assay: Binding at human dopamine D1 receptor. Conditions: read-out: hD1 Ki.
Source text: as §4, §2

A further assay deals with T5, human 5HT1F receptor (Homo sapiens, UniProt P30939).
T5 construct: expressed in transfected cells
Kind of assay: Radioligand binding at human 5HT1F receptor. Conditions: read-out: h5HT1F Ki. How it is done: (§5) Human 5HT1B, 5HT1D, 5HT1E, 5HT1F, and 5HT7 ReceDtors: The cell lysates of LM(tk-) clonal cell line stably transfected with the genes encoding each of these 5HT receptor-subtypes were prepared as described above. Cell membranes were suspended in 50 mM Tris-HCl buffer (pH 7.4 at 37° C.) containing 10 mM MgCl2, 0.2 mM EDTA, 10 µM pargyline, and 0.1% ascorbate. […] Nonspecific binding was determined in the presence of 10 μM serotonin. The bound radioligand was separated by filtration through GF/B filters using a cell harvester.
as §2

For assay [3], the target named is T6, human α2C adrenergic receptor (Homo sapiens, UniProt P18825).
T6 construct: expressed in transfected cells
In words: Binding at human α2C adrenergic receptor. Conditions: read-out: hα2C Ki.
Source text: as §4, §2

For another assay, the target named is T7, 5HT transporter (Rattus norvegicus, UniProt P31652).
T7 construct: native, tissue-derived transporters; from tissue
T7 sequence (P31652 whole entry): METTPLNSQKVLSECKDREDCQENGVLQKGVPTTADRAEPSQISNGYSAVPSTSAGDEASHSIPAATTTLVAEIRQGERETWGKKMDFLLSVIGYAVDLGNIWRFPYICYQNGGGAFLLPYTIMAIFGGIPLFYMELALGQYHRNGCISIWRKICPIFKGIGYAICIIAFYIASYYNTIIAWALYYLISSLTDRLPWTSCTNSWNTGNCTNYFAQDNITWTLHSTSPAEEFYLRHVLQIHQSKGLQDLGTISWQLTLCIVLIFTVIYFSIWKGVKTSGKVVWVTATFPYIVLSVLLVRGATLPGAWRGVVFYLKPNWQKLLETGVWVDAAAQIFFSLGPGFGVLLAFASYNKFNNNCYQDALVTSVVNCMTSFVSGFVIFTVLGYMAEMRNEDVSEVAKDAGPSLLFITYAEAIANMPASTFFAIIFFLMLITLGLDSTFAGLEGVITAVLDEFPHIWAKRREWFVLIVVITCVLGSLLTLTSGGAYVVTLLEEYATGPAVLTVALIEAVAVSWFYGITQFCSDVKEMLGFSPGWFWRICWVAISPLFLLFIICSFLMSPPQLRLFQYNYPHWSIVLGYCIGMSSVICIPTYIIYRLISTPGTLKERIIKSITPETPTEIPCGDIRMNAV
Kind of assay: Binding at native 5HT transporter. Conditions: read-out: r5HT Uptk Ki. How it is done:
as §3, §2

Assay [4] deals with T8, Monoamine Oxidase A (central) (Rattus norvegicus, UniProt P21396).
T8 construct: Rat brain was used as the enzyme source; tissue NovaScreen (Hanover, Md.) performed the assay; host or cells: rat brain
T8 sequence (P21396 whole entry): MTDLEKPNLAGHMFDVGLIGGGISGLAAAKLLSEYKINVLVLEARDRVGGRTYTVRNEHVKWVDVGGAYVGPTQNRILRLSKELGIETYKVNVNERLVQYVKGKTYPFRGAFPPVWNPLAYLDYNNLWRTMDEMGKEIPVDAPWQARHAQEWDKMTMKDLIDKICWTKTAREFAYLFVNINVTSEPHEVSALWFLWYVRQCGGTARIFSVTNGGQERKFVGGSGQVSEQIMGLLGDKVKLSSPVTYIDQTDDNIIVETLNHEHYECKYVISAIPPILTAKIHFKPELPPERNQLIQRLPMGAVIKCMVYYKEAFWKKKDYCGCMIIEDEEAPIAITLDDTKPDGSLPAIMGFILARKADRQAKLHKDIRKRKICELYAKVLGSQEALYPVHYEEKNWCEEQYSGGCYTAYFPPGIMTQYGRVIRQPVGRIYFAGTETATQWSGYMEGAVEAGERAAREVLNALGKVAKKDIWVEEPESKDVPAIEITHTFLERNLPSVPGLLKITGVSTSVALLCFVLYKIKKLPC
In words: Central Monoamine Oxidase A Enzyme Assay. Conditions: rat brain as enzyme source. Format: biochemical. How it is done:
The methods to determine activity at monoamine oxidase enzymes (for example, central MAOA and MAOB) are described by Otsuka and Kobayashi, 1964, and were performed by NovaScreen (Hanover, Md.) with the following modifications.
Central Monoamine Oxidase A Enzyme Assay: Rat brain was used as the enzyme source. The enzyme source was pre-incubated with reference compound (RO 41-1049), test compound (Example 92), and subtype selective blocker (100 nM deprenyl) for 60 minutes at 37° C. in 50 mM KPO4 containing 50 μM EDTA and 10 μM dithiothreitol (pH 7.2 at 25° C.). Substrate ([^14C]Serotonin, […]) was then added and incubated for 30 minutes. The reaction was stopped by the addition of 0.5 ml of 1-2M citric acid. Radioactive product was extracted into xylene/ethyl acetate fluor and compared to control values by scintillation spectrophotometry in order to ascertain any interactions of test compound with central MAOA.
as §2

The target in assay [5] is T9, human α1B adrenergic receptor (Homo sapiens, UniProt P35368).
T9 construct: expressed in transfected cells
In words: Binding at human α1B adrenergic receptor. Conditions: read-out: hα1B Ki.
Source text: as §4, §2

The target in assay [6] is T10, human H1 histamine receptor (Homo sapiens, UniProt P35367).
T10 construct: expressed in transfected cells
T10 sequence (P35367 whole entry): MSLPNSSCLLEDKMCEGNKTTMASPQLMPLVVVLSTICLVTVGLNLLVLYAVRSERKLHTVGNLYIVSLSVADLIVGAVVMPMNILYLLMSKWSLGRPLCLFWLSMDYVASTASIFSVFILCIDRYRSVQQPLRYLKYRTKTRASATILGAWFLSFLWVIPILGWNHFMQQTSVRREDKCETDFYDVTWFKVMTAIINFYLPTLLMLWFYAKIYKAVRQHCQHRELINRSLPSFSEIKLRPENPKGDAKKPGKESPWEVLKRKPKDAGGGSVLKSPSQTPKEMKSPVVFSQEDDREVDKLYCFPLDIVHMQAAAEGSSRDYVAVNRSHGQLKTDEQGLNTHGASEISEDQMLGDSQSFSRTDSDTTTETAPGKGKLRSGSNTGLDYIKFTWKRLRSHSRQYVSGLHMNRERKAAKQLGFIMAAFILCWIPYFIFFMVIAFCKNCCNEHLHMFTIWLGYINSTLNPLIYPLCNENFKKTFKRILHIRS
Kind of assay: Binding at histamine H1 receptor. Conditions: read-out: hH1 Ki.
Source text: as §4, §2

Assay [7] deals with T11, human dopamine D4 receptor (Homo sapiens, UniProt P21917).
T11 construct: purchased BioSignal, Inc. (Montreal, Canada)
In words: Binding at human dopamine D4 receptor. Conditions: read-out: hD4 Ki.
Source text: as §4, §2

A further assay concerns the target T12, human 5HT1E receptor (Homo sapiens, UniProt P28566).
T12 construct: expressed in transfected cells
In words: Radioligand binding at human 5HT1E receptor. Conditions: read-out: h5HT1E Ki. How it is done:
as §5, §2

Assay [8] deals with T13, human α2B adrenergic receptor (Homo sapiens, UniProt P18089).
T13 construct: expressed in transfected cells
T13 sequence (P18089 whole entry): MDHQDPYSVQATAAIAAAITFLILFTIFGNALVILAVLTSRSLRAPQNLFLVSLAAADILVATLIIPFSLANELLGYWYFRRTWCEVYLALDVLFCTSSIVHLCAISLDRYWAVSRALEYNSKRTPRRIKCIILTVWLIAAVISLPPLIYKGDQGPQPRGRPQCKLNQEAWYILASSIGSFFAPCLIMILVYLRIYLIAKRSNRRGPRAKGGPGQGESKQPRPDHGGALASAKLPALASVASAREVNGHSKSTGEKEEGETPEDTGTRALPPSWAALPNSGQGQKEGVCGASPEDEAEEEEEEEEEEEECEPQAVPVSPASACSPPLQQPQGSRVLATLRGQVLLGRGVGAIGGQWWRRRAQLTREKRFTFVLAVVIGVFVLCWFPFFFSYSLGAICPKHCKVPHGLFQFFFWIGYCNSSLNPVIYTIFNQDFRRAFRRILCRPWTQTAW
In words: Binding at human α2B adrenergic receptor. Conditions: read-out: hα2B Ki.
Source text: as §4, §2

In assay [9] the target is T14, human α1D adrenergic receptor (Homo sapiens, UniProt P25100).
T14 construct: expressed in transfected cells
In words: Binding at human α1D adrenergic receptor. Conditions: read-out: hα1D Ki.
Source text: as §4, §2

Assay [10] has as its target T15, human α2A adrenergic receptor (Homo sapiens, UniProt P08913).
T15 construct: expressed in transfected cells
In words: Binding at human α2A adrenergic receptor. Conditions: read-out: hα2A Ki.
Source text: as §4, §2

The target of the next assay is T16, human 5HT1B receptor (Homo sapiens, UniProt P28222).
T16 construct: expressed in transfected cells
In words: Radioligand binding at human 5HT1B receptor. Conditions: read-out: h5HT1B Ki. The procedure: as §5, §2

The next assay has as its target T17, human 5HT1D receptor (Homo sapiens, UniProt P28221).
T17 construct: expressed in transfected cells
Kind of assay: Radioligand binding at human 5HT1D receptor. Conditions: read-out: h5HT1D Ki. How it is done:
as §5, §2

Assay [11] deals with T18, human dopamine D5 receptor (Homo sapiens, UniProt P21918).
T18 construct: expressed in transfected cells
T18 sequence (P21918 whole entry): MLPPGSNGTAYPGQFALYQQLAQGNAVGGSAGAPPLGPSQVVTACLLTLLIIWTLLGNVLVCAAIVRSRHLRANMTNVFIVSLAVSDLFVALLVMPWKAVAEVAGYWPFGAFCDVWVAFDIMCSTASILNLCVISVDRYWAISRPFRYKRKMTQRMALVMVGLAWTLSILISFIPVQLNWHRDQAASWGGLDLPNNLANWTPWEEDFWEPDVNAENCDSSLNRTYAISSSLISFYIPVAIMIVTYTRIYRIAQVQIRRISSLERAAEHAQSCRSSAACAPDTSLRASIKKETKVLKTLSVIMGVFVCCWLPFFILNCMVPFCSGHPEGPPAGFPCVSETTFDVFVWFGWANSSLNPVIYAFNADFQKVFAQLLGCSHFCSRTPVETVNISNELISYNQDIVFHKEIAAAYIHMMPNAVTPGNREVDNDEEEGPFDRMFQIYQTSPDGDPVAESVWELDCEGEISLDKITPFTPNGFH
Kind of assay: Binding at dopamine D5 receptor. Conditions: read-out: hD5 Ki.
Source text: as §4, §2

In the next assay the target is T19, human 5HT4 receptor (Homo sapiens, UniProt Q13639).
T19 construct: expressed in transfected cells
T19 sequence (Q13639 whole entry): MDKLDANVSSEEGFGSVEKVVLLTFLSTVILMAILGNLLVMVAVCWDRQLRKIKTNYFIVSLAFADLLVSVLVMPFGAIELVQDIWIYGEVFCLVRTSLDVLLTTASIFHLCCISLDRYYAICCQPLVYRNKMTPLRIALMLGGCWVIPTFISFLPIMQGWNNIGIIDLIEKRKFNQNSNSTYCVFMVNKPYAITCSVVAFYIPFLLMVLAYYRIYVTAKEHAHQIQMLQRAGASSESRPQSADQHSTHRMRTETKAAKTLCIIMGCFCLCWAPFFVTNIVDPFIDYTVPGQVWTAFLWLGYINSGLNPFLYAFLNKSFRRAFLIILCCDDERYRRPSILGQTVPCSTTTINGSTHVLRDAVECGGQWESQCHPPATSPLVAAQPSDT
Kind of assay: Radioligand binding at 5-HT4 receptor. Conditions: read-out: h5HT4 Ki. How it is done: as §1, §2

T12 sequence (P28566 whole entry): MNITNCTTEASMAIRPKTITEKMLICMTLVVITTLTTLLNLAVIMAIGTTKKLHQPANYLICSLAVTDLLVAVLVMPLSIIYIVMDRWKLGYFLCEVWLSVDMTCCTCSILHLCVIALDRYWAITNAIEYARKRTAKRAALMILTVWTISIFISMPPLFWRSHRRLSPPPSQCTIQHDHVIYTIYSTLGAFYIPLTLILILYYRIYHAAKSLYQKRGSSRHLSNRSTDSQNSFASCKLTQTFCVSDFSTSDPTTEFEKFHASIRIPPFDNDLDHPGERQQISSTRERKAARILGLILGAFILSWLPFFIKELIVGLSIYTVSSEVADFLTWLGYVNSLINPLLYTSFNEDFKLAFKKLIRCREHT
T1 sequence (P50406 whole entry): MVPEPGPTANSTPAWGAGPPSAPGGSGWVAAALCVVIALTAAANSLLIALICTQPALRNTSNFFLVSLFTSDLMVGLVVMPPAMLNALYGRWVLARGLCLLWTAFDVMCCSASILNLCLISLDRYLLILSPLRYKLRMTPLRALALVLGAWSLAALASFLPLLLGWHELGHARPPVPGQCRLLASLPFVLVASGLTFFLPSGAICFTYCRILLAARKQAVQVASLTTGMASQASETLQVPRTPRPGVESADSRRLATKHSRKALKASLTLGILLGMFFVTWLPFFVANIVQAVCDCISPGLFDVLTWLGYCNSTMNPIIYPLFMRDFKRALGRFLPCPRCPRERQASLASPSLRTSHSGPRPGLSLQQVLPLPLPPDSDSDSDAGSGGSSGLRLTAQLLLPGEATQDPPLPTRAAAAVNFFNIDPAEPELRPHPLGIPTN

As to `O=C1C(=Nc2cccc(C(F)(F)F)c2)c2ccccc2N1c1ccccc1` [Example 92, 1-PHENYL-3-[[3-(TRIFLUOROMETHYL)PHENYL]IMINO]-1,3-DIHYDRO-2H-INDOL-2-ONE], the inhibition constant Ki was greater than 50 µM on human 5HT6 receptor; 17.8 µM on DA transporter; 41.4 µM in assay [1]; greater than 50 µM in [2]; 5.29 µM on human 5HT1F receptor; greater than 50 µM in assay [3]. The Ki on 5HT transporter is 45.1 µM; in [5], greater than 50 µM; in assay [6], 39.9 µM; in assay [7] it was 41.4 µM; at human 5HT1E receptor, 18.9 µM; in [8] it was greater than 50 µM. In addition, the Ki worked out at 17.2 µM in assay [9]; 21.9 µM in [10]; 11.3 µM on human 5HT1B receptor; 32.1 µM on human 5HT1D receptor; 29.3 µM in [11]; 0.072 µM on human 5HT4 receptor. Besides, the “% INHIBITION” value in [4] amounted to 10%.

A word on the Ki: it is a measure of affinity in units of concentration, obtained from inhibition or displacement.
